Measured values as given in PMC5515969, “Effects of 31 FDA approved small-molecule kinase inhibitors on isolated rat liver mitochondria” (Archives of Toxicology, 2016).
Read-outs that look alike come from different tables or passages of the source.

Tests used:
RCC III = RCC III activity in submitochondrial particles; type: biochemical, rat; conditions: 15 min, DMSO-treated = 100
Summary of the method: (§1)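 Rat submitochondrial particles (1 mg/ml) were treated with test compounds for 15 min. RCC IV, like RCC III, was monitored at 550 nm every 10 s for 2 min, and RCC I/V at 340 nm each minute for 6 min. DMSO samples defined unit activity.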

[1] = cited from earlier work
[2] = tested on: isolated rat liver mitochondria
[3] = tested on: isolated rat liver mitochondria; assay: Mitochondrial oxygen consumption (glutamate/malate or succinate driven, state 4 and state 3); type: biochemical; for State 3 respiration driven by succinate at 10XCmax: key: 0 indicates that the drug had no effects (negative); for State 3 respiration driven by succinate at 1XCmax: key: 0 indicates that the drug had no effects (negative)
Summary of the method: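 Oxygen uptake on glutamate/malate or on succinate defined state 4; ADP added 3 min later gave state 3. Mitochondria isolated from rat liver by differential centrifugation, adjusted to 1 mg/ml and pretreated 5 min with inhibitor (0.1% DMSO final). Values relative to DMSO control, set to 1.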

[4] = tested on: isolated rat liver mitochondria; assay: Mitochondrial inner membrane potential (MMP), Rhodamine 123; type: biochemical; conditions: difference in signal between KI and DMSO treated samples at the end of experiments
From the text: Fig. 3 KI effects on mitochondrial inner membrane potential (MMP). […] In a, c, data are means and standard derivations from three separate experiments. *p < 0.05 as compared to DMSO-treated samples at the end of experiments. In b, data are means of two independent experiments

RCC I = RCC I activity in submitochondrial particles; type: biochemical, rat; parameters: key to RCC I at 10XCmax / RCC I at 100XCmax / RCC I at 50XCmax / RCC I at 30XCmax / RCC I at 20XCmax: activity relative to DMSO-treated controls (control set as 1 = 100%); conditions: for RCC activity I: 15 min, DMSO-treated = 100
Summary of the method: as §1

RCC IV = RCC IV activity in submitochondrial particles; type: biochemical, rat; parameters: key to RCC IV at 50XCmax / RCC IV at 100XCmax: activity relative to DMSO-treated controls (control set as 1 = 100%); conditions: for RCC activity IV: 15 min, DMSO-treated = 100
Summary of the method: as §1

[5] = tested on: isolated rat liver mitochondria; assay: Mitochondrial ROS production (CM-H2DCFDA); conditions: DMSO treated samples set as 1
RCC II = target: T1, RCC II (Rattus norvegicus, UniProt P21913+Q641Z9+Q6PCT8+Q920L2); assay: RCC II activity in submitochondrial particles; type: biochemical; parameters: key: activity relative to DMSO-treated controls (control set as 1 = 100%); conditions: relative to DMSO treated samples
T1 construct: Submitochondrial particles were prepared by subjecting the intact mitochondria to three successive freeze–thaw cycles; from tissue; host or cells: rat liver mitochondria, used as submitochondrial particles
T1 sequence (Q920L2 35-656): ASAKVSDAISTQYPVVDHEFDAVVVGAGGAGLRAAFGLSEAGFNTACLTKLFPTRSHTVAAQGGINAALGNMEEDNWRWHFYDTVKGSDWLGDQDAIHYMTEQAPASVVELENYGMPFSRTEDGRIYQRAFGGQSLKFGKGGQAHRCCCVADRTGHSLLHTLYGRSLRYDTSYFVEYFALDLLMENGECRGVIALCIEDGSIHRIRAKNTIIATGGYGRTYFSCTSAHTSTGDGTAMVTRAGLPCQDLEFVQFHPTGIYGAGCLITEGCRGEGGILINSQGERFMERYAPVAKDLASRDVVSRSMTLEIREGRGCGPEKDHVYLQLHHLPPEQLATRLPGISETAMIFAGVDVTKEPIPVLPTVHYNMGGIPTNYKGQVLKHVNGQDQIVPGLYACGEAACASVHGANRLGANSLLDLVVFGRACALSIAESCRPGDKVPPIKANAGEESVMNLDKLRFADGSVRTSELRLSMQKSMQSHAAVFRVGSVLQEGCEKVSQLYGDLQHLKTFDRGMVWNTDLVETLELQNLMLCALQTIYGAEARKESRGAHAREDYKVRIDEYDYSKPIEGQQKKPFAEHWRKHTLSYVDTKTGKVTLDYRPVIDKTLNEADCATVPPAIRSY
T1 sequence (P21913 31-282): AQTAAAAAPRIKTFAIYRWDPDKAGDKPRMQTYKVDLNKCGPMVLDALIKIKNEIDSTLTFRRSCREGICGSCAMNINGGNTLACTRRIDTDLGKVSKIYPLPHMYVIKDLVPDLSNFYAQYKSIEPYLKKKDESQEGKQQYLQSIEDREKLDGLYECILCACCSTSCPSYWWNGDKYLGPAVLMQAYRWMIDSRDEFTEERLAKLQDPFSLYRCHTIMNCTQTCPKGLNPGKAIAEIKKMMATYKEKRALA
T1 sequence (Q641Z9 1-169): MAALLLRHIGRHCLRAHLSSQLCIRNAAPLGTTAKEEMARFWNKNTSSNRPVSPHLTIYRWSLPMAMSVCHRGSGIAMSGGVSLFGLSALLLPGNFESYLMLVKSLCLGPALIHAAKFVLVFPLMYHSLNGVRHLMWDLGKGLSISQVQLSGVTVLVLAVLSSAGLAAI
T1 sequence (Q6PCT8 57-159): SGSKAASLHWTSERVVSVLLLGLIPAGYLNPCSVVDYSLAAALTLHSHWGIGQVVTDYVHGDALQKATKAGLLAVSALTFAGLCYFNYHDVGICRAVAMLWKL
Summary of the method: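 Activity relative to DMSO (set as 1) after 15-min exposure of submitochondrial particles (1 mg/ml) to compound. RCC I is defined as rotenone-sensitive activity and RCC II is followed at 600 nm over 6 min.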

[6] = 1XCmax, DMSO treated samples set as 1
[7] = 2.5XCmax, DMSO treated samples set as 1
[8] = 5XCmax, DMSO treated samples set as 1
[9] = 10XCmax, DMSO treated samples set as 1
[10] = 20XCmax, DMSO treated samples set as 1
[11] = 30XCmax, DMSO treated samples set as 1
[12] = 50XCmax, DMSO treated samples set as 1
[13] = 100XCmax, DMSO treated samples set as 1

COc1cc2c(Nc3ccc(Br)cc3F)ncnc2cc1OCC1CCN(C)CC1 [Vandetanib]
RCC activity III (RCC III; 50-fold Cmax): 99.20 ± 5.61 % of control
RCC activity III (RCC III; 100-fold Cmax): 91.23 ± 6.54 % of control
Cmax ([1]; human therapeutic Cmax at FDA recommended dosages, ref product labeling and drug approval packages at the official FDA website): 1.8 µM
Cmax ([1]; read-out: Cmax at µM, therapeutic maximal blood concentration, ref product labeling): 1.8 µM
Cmax ([1]; therapeutic maximal blood concentration, ref product labeling): 857 ng/mL
Cytochrome c release 1XCmax ([2]; 1XCmax, positive control alamethicin treated samples): 0
Cytochrome c release 2.5XCmax ([2]; 2.5XCmax, positive control alamethicin treated samples): 0
Cytochrome c release 5XCmax ([2]; 5XCmax, positive control alamethicin treated samples): 0
Cytochrome c release 10XCmax ([2]; 10XCmax, positive control alamethicin treated samples): 0
Cytochrome c release 20XCmax ([2]; 20XCmax, positive control alamethicin treated samples): 0
Cytochrome c release 30XCmax ([2]; 30XCmax, positive control alamethicin treated samples): 0
Cytochrome c release 50XCmax ([2]; 50XCmax, positive control alamethicin treated samples): 0
Cytochrome c release 100XCmax ([2]; 100XCmax, positive control alamethicin treated samples): 18.47±3.80 percentage of the positive control group
lowest concentration causing cytochrome c release ([2]; rat, 30 min, pH 7.4): 100 fold Cmax
State 3 respiration driven by glutamate/malate at 1XCmax [3, 6]: 0
State 3 respiration driven by succinate at 1XCmax [3, 6]: 0
State 4 respiration driven by glutamate/malate at 1XCmax [3, 6]: 0
State 4 respiration driven by succinate at 1XCmax [3, 6]: 0
State 3 respiration driven by glutamate/malate at 2.5XCmax [3, 7]: 0
State 3 respiration driven by succinate at 2.5XCmax [3, 7]: 0
State 4 respiration driven by glutamate/malate at 2.5XCmax [3, 7]: 0
State 4 respiration driven by succinate at 2.5XCmax [3, 7]: 0
State 3 respiration driven by glutamate/malate at 5XCmax [3, 8]: 0
State 3 respiration driven by succinate at 5XCmax [3, 8]: 0
State 4 respiration driven by glutamate/malate at 5XCmax [3, 8]: 0
State 4 respiration driven by succinate at 5XCmax [3, 8]: 0
State 3 respiration driven by glutamate/malate at 10XCmax [3, 9]: 0
State 3 respiration driven by succinate at 10XCmax [3, 9]: 0
State 4 respiration driven by glutamate/malate at 10XCmax [3, 9]: 0
State 4 respiration driven by succinate at 10XCmax [3, 9]: 0
State 3 respiration driven by glutamate/malate at 20XCmax [3, 10]: 0
State 3 respiration driven by succinate at 20XCmax [3, 10]: 0
State 4 respiration driven by glutamate/malate at 20XCmax [3, 10]: 0
State 4 respiration driven by succinate at 20XCmax [3, 10]: 0
State 3 respiration driven by glutamate/malate at 30XCmax [3, 11]: 0
State 3 respiration driven by succinate at 30XCmax [3, 11]: 0
State 4 respiration driven by glutamate/malate at 30XCmax [3, 11]: 0
State 4 respiration driven by succinate at 30XCmax [3, 11]: 0
State 3 respiration driven by glutamate/malate at 50XCmax [3, 12]: 0
State 3 respiration driven by succinate at 50XCmax [3, 12]: 0
State 4 respiration driven by glutamate/malate at 50XCmax [3, 12]: 0
State 4 respiration driven by succinate at 50XCmax [3, 12]: 0
State 3 respiration driven by glutamate/malate at 100XCmax [3, 13]: 0
State 3 respiration driven by succinate at 100XCmax [3, 13]: 0
State 4 respiration driven by glutamate/malate at 100XCmax [3, 13]: 0
State 4 respiration driven by succinate at 100XCmax [3, 13]: 0
effect on mitochondrial oxygen consumption ([3]; up to 100-fold Cmax or highest testable concentration): no effects
MMP measured by Rhodamine 123 at 1XCmax ([4]; 1XCmax): 0
MMP measured by Rhodamine 123 at 2.5XCmax ([4]; 2.5XCmax): 0
MMP measured by Rhodamine 123 at 5XCmax ([4]; 5XCmax): 0
MMP measured by Rhodamine 123 at 10XCmax ([4]; 10XCmax): 0
MMP measured by Rhodamine 123 at 20XCmax ([4]; 20XCmax): 0
MMP measured by Rhodamine 123 at 30XCmax ([4]; 30XCmax): 0
MMP measured by Rhodamine 123 at 50XCmax ([4]; 50XCmax): 0
MMP measured by Rhodamine 123 at 100XCmax ([4]; 100XCmax): 0
RCC I at 10XCmax (RCC I; 10XCmax, relative to DMSO treated samples): 0
RCC activity I (RCC I; 50-fold Cmax): 87.71 ± 0.58 % of control
RCC I at 50XCmax (RCC I; 50XCmax, relative to DMSO treated samples): 87.71±0.58
RCC activity I (RCC I; 100-fold Cmax): 65.88 ± 7.15 % of control
RCC I at 100XCmax (RCC I; 100XCmax, relative to DMSO treated samples): 65.88±7.15
lowest concentration inhibiting RCC I (RCC I; submitochondrial particles): 50 fold Cmax
RCC activity IV (RCC IV; 50-fold Cmax): 100.56 ± 2.67 % of control
RCC IV at 50XCmax (RCC IV; 50XCmax, relative to DMSO treated samples, in %): 0
RCC activity IV (RCC IV; 100-fold Cmax): 103.06 ± 12.96 % of control
ROS measured by CM-H2DCFDA at 1XCmax ([5]; 1XCmax): 0
ROS measured by CM-H2DCFDA at 2.5XCmax ([5]; 2.5XCmax): 0
ROS measured by CM-H2DCFDA at 5XCmax ([5]; 5XCmax): 0
ROS measured by CM-H2DCFDA at 10XCmax ([5]; 10XCmax): 0
ROS measured by CM-H2DCFDA at 20XCmax ([5]; 20XCmax): 0
ROS measured by CM-H2DCFDA at 30XCmax ([5]; 30XCmax): 0
ROS measured by CM-H2DCFDA at 50XCmax ([5]; 50XCmax): 0
ROS measured by CM-H2DCFDA at 100XCmax ([5]; 100XCmax): 0
RCC II at 1.0XCmax (RCC II; 1.0XCmax): 0
RCC II at 2.5XCmax (RCC II; 2.5XCmax): 0
RCC II at 5XCmax (RCC II; 5XCmax): 0
RCC II at 10XCmax (RCC II; 10XCmax): 0
RCC II at 20XCmax (RCC II; 20XCmax): 0
RCC II at 30XCmax (RCC II; 30XCmax): 0
RCC II at 50XCmax (RCC II; 50XCmax): 0
RCC II at 100XCmax (RCC II; 100XCmax): 0
